What follows are compounds tested on HCV genotype 1b (Con1) replicon in HUH-7 cells (assay: HCV replicon luciferase reporter assay, genotype 1b). Settings: Hepatitis C virus, 72 h, genotype 1b replicon, 3 days incubation, read-out: LE_1b (EC50).
Assay type: cell-based
Source text: An HCV replicon whole cell system was established as described by Lohmann V, Korner F, Koch J, Herian U, Theilmann L, Bartenschlager R., Science 285(5424):110-3 (1999) and modified to introduce a luciferase reporter, as first described by Krieger et al (Krieger N, Lohmann V, and Bartenschlager R, J. Virol. 75(10):4614-4624 (2001)). CDNA encoding a humanized form of the Renilla luciferase gene and a linker sequence fused directly to the 3′-end of the luciferase gene were introduced into the replicon construct using an Asc1 restriction site located in core, directly upstream of the neomycin marker gene. The adaptive mutation at position 1179 (serine to isoleucine) was also introduced (Blight K J, Kolykhalov, A A, Rice, C M, Science 290(5498):1972-1974). A stable cell line constitutively expressing this HCV replicon construct was generated by first linearizing plasmid DNAs with ScaI. RNA transcripts were synthesized in vitro using the T7 MegaScript transcription kit (Ambion, Austin, Tex.) according to manufacturer's directions. In vitro transcripts of the cDNA were transfected into the human hepatoma cell line, HUH-7. […] Resulting cell lines were characterized for positive and negative strand RNA production and protein production over time. […]
HCV replicon luciferase assays were developed to monitor the inhibitory effects of compounds described in the disclosure on HCV genotypes 1a and 1b viral replication. HUH-7 cells, constitutively expressing the HCV replicon, were grown in Dulbecco's Modified Eagle Media (DMEM) (Gibco-BRL) containing 10% Fetal calf serum (FCS) (Sigma) and 1 mg/mL G418 (Gibco-BRL). Compounds were serially diluted 3 folds in DMSO for a twenty-point titration and subsequently transferred to sterile 384-well tissue-culture treated plates (Corning cat #3571). The plates were then seeded with 50 μL of cells at a density of 3.0×10^3 cells/well in DMEM containing 4% FCS (final DMSO concentration at 0.5%). After 3 days incubation at 37° C., cells were analyzed for Renilla Luciferase activity using the EnduRen as substrate (Promega cat #E6485). The EnduRen substrate was diluted in DMEM and then added to the plates to a final concentration of 7.5 μM. The plates were incubated for 2 hrs at 37° C. and then read immediately for 30 seconds with Viewlux Imager (PerkinElmer) using a luminescence program. To assess cytotoxicity of compounds, CC50 values were generated by multiplexing the EnduRen-containing plates with Cell Titer-Blue (Promega, cat # G8082). Cell-Titer Blue (3 μL) was added to each well and incubated for 8 hrs at 37° C. The fluorescence signal from each well was read, with an excitation wavelength at 525/10 nm and an emission wavelength of 598/10 nm, using the Viewlux Imager.
The EC50 values for compounds were calculated by using a four-parameter logistic equation: y=A+((B−A)/(1+((C/x)^D))), where A and B denotes minimal and maximal % inhibition, respectively, C is the EC50, D is the hill slope and x represents compound concentration.
Work on `COC[C@@H]1C[C@H](C)CC/C=C\[C@@H]2C[C@@]2(C(=O)NS(=O)(=O)C2(C)CC2)NC(=O)[C@@H]2C[C@@H](Oc3nc4cc(OC)c(F)cc4nc3C(F)(F)F)CN2C(=O)[C@H]1NC(=O)OC(C)(C)C(F)(F)F` [Compound 1048, 1,1,1-trifluoro-2-methylpropan-2-yl ((2R,6S,7R,9R,13aS,14aR,16aS,Z)-2-((6-fluoro-7-methoxy-3-(trifluoromethyl)quinoxalin-2-yl)oxy)-7-(methoxymethyl)-9-methyl-14a-(((1-methylcyclopropyl)sulfonyl)carbamoyl)-5,16-dioxo-1,2,3,5,6,7,8,9,10,11,13a,14,14a,15,16,16a-hexadecahydrocyclopropa[e]pyrrolo[1,2-a][1,4]diazacyclopentadecin-6-yl)carbamate] yielded an EC50 of 0.27 nM.

Same assay, conditions: Hepatitis C virus, 72 h, genotype 1b replicon, 3 days incubation, read-out: LE_1b (EC50, range)
`COC[C@@H]1C[C@@H](C)CC/C=C\[C@@H]2C[C@@]2(C(=O)NS(=O)(=O)C2(C)CC2)NC(=O)[C@@H]2C[C@@H](Oc3nc4cc(OC)c(F)cc4nc3C(F)(F)F)CN2C(=O)[C@H]1NC(=O)OC(C)(C)C` [Compound 1045, tert-butyl ((2R,6S,7R,9S,13aS,14aR,16aS,Z)-2-((6-fluoro-7-methoxy-3-(trifluoromethyl)quinoxalin-2-yl)oxy)-7-(methoxymethyl)-9-methyl-14a-(((1-methylcyclopropyl)sulfonyl)carbamoyl)-5,16-dioxo-1,2,3,5,6,7,8,9,10,11,13a,14,14a,15,16,16a-hexadecahydrocyclopropa[e]pyrrolo[1,2-a][1,4]diazacyclopentadecin-6-yl)carbamate] showed an EC50 of 1.01 to 5 nM. In the case of `COC[C@@H]1C[C@@H](C)CC/C=C\[C@@H]2C[C@@]2(C(=O)NS(=O)(=O)C2(C)CC2)NC(=O)[C@@H]2C[C@@H](Oc3nc4cc(OC)c(F)cc4nc3C(F)(F)F)CN2C(=O)[C@H]1NC(=O)OC(C)(C)C(F)(F)F` [Compound 1046, 1,1,1-trifluoro-2-methylpropan-2-yl ((2R,6S,7R,9S,13aS,14aR,16aS,Z)-2-((6-fluoro-7-methoxy-3-(trifluoromethyl)quinoxalin-2-yl)oxy)-7-(methoxymethyl)-9-methyl-14a-(((1-methylcyclopropyl)sulfonyl)carbamoyl)-5,16-dioxo-1,2,3,5,6,7,8,9,10,11,13a,14,14a,15,16,16a-hexadecahydrocyclopropa[e]pyrrolo[1,2-a][1,4]diazacyclopentadecin-6-yl)carbamate], the EC50 is reported as 1.01 to 5 nM. For `COC[C@@H]1C[C@H](C)CC/C=C\[C@@H]2C[C@@]2(C(=O)NS(=O)(=O)C2(C)CC2)NC(=O)[C@@H]2C[C@@H](Oc3nc4cc(OC)c(F)cc4nc3C(F)(F)F)CN2C(=O)[C@H]1NC(=O)OC(C)(C)C` [Compound 1047, tert-butyl ((2R,6S,7R,9R,13aS,14aR,16aS,Z)-2-((6-fluoro-7-methoxy-3-(trifluoromethyl)quinoxalin-2-yl)oxy)-7-(methoxymethyl)-9-methyl-14a-(((1-methylcyclopropyl)sulfonyl)carbamoyl)-5,16-dioxo-1,2,3,5,6,7,8,9,10,11,13a,14,14a,15,16,16a-hexadecahydrocyclopropa[e]pyrrolo[1,2-a][1,4]diazacyclopentadecin-6-yl)carbamate], the EC50 was 0.51 to 1 nM. `COC[C@@H]1C[C@H](C)CC/C=C\[C@@H]2C[C@@]2(C(=O)NS(=O)(=O)C2(C)CC2)NC(=O)[C@@H]2C[C@@H](Oc3nc4cc(OC)c(F)cc4nc3C(F)(F)F)CN2C(=O)[C@H]1NC(=O)OC(C)(C)C(F)(F)F` [Compound 1048, 1,1,1-trifluoro-2-methylpropan-2-yl ((2R,6S,7R,9R,13aS,14aR,16aS,Z)-2-((6-fluoro-7-methoxy-3-(trifluoromethyl)quinoxalin-2-yl)oxy)-7-(methoxymethyl)-9-methyl-14a-(((1-methylcyclopropyl)sulfonyl)carbamoyl)-5,16-dioxo-1,2,3,5,6,7,8,9,10,11,13a,14,14a,15,16,16a-hexadecahydrocyclopropa[e]pyrrolo[1,2-a][1,4]diazacyclopentadecin-6-yl)carbamate] showed an EC50 of 0.1 to 0.5 nM. With `CCOc1ccc2nc(C(F)(F)F)c(O[C@@H]3C[C@H]4C(=O)N[C@]5(C(=O)NS(=O)(=O)C6(C)CC6)C[C@H]5/C=C\CC[C@H](C)C[C@@H](COC)[C@H](NC(=O)OC(C)(C)C)C(=O)N4C3)nc2c1` [Compound 1049, tert-butyl ((2R,6S,7R,9S,13aS,14aR,16aS,Z)-2-((7-ethoxy-3-(trifluoromethyl)quinoxalin-2-yl)oxy)-7-(methoxymethyl)-9-methyl-14a-(((1-methylcyclopropyl)sulfonyl)carbamoyl)-5,16-dioxo-1,2,3,5,6,7,8,9,10,11,13a,14,14a,15,16,16a-hexadecahydrocyclopropa[e]pyrrolo[1,2-a][1,4]diazacyclopentadecin-6-yl)carbamate] the EC50 was 1.01 to 5 nM. For `CCOc1ccc2nc(C(F)(F)F)c(O[C@@H]3C[C@H]4C(=O)N[C@]5(C(=O)NS(=O)(=O)C6(C)CC6)C[C@H]5/C=C\CC[C@@H](C)C[C@@H](COC)[C@H](NC(=O)OC(C)(C)C)C(=O)N4C3)nc2c1` [Compound 1050, tert-butyl ((2R,6S,7R,9R,13aS,14aR,16aS,Z)-2-((7-ethoxy-3-(trifluoromethyl)quinoxalin-2-yl)oxy)-7-(methoxymethyl)-9-methyl-14a-(((1-methylcyclopropyl)sulfonyl)carbamoyl)-5,16-dioxo-1,2,3,5,6,7,8,9,10,11,13a,14,14a,15,16,16a-hexadecahydrocyclopropa[e]pyrrolo[1,2-a][1,4]diazacyclopentadecin-6-yl)carbamate], the EC50 was 0.1 to 0.5 nM. For `CCOc1ccc2nc(C(F)(F)F)c(O[C@@H]3C[C@H]4C(=O)N[C@]5(C(=O)NS(=O)(=O)C6(C)CC6)C[C@H]5/C=C\CC[C@H](C)C[C@@H](COC)[C@H](NC(=O)OC(C)(C)C(C)(F)F)C(=O)N4C3)nc2c1` [Compound 1051, 3,3-difluoro-2-methylbutan-2-yl ((2R,6S,7R,9S,13aS,14aR,16aS,Z)-2-((7-ethoxy-3-(trifluoromethyl)quinoxalin-2-yl)oxy)-7-(methoxymethyl)-9-methyl-14a-(((1-methylcyclopropyl)sulfonyl)carbamoyl)-5,16-dioxo-1,2,3,5,6,7,8,9,10,11,13a,14,14a,15,16,16a-hexadecahydrocyclopropa[e]pyrrolo[1,2-a][1,4]diazacyclopentadecin-6-yl)carbamate], the EC50 was 1.01 to 5 nM. In the case of `CCOc1ccc2nc(C(F)(F)F)c(O[C@@H]3C[C@H]4C(=O)N[C@]5(C(=O)NS(=O)(=O)C6(C)CC6)C[C@H]5/C=C\CC[C@@H](C)C[C@@H](COC)[C@H](NC(=O)OC(C)(C)C(C)(F)F)C(=O)N4C3)nc2c1` [Compound 1052, 3,3-difluoro-2-methylbutan-2-yl ((2R,6S,7R,9R,13aS,14aR,16aS,Z)-2-((7-ethoxy-3-(trifluoromethyl)quinoxalin-2-yl)oxy)-7-(methoxymethyl)-9-methyl-14a-(((1-methylcyclopropyl)sulfonyl)carbamoyl)-5,16-dioxo-1,2,3,5,6,7,8,9,10,11,13a,14,14a,15,16,16a-hexadecahydrocyclopropa[e]pyrrolo[1,2-a][1,4]diazacyclopentadecin-6-yl)carbamate], the EC50 is reported as 0.1 to 0.5 nM. With `CCOc1ccc2nc(C(F)(F)F)c(O[C@@H]3C[C@H]4C(=O)N[C@]5(C(=O)NS(=O)(=O)C6(C)CC6)C[C@H]5/C=C\CC[C@H](C)C[C@@H](COC)[C@H](NC(=O)OC(C)(C)C(F)(F)F)C(=O)N4C3)nc2c1` [Compound 1053, 1,1,1-trifluoro-2-methylpropan-2-yl ((2R,6S,7R,9S,13aS,14aR,16aS,Z)-2-((7-ethoxy-3-(trifluoromethyl)quinoxalin-2-yl)oxy)-7-(methoxymethyl)-9-methyl-14a-(((1-methylcyclopropyl)sulfonyl)carbamoyl)-5,16-dioxo-1,2,3,5,6,7,8,9,10,11,13a,14,14a,15,16,16a-hexadecahydrocyclopropa[e]pyrrolo[1,2-a][1,4]diazacyclopentadecin-6-yl)carbamate] the EC50 was 1.01 to 5 nM. Compound `CCOc1ccc2nc(C(F)(F)F)c(O[C@@H]3C[C@H]4C(=O)N[C@]5(C(=O)NS(=O)(=O)C6(C)CC6)C[C@H]5/C=C\CC[C@@H](C)C[C@@H](COC)[C@H](NC(=O)OC(C)(C)C(F)(F)F)C(=O)N4C3)nc2c1` [Compound 1054, 1,1,1-trifluoro-2-methylpropan-2-yl ((2R,6S,7R,9R,13aS,14aR,16aS,Z)-2-((7-ethoxy-3-(trifluoromethyl)quinoxalin-2-yl)oxy)-7-(methoxymethyl)-9-methyl-14a-(((1-methylcyclopropyl)sulfonyl)carbamoyl)-5,16-dioxo-1,2,3,5,6,7,8,9,10,11,13a,14,14a,15,16,16a-hexadecahydrocyclopropa[e]pyrrolo[1,2-a][1,4]diazacyclopentadecin-6-yl)carbamate] has an EC50 of 0.1 to 0.5 nM.

— patent US9580463B2 (BRISTOL-MYERS SQUIBB COMPANY, priority 2013, dated 2017)
